The record followed here is the Kinase Knowledgebase extract (Sharma et al. 2016).

One experiment addresses PIK3CA (bovine) (UniProt P32871). The experiment can be described thus: Inhibition of PIK3CA Kinase Activity.
The target in another experiment is CDK2 (UniProt P24941). The experiment can be described thus: Enzyme Assay.
A further experiment deals with PIK3CB (UniProt P42338). Put plainly: Inhibition of PIK3CB Kinase Activity.
The next experiment addresses PIK3CG (UniProt P48736). The experiment can be described thus: Inhibition of PIK3CG Kinase Activity.

Sequence of PIK3CA (bovine) (P32871 whole entry, looked up): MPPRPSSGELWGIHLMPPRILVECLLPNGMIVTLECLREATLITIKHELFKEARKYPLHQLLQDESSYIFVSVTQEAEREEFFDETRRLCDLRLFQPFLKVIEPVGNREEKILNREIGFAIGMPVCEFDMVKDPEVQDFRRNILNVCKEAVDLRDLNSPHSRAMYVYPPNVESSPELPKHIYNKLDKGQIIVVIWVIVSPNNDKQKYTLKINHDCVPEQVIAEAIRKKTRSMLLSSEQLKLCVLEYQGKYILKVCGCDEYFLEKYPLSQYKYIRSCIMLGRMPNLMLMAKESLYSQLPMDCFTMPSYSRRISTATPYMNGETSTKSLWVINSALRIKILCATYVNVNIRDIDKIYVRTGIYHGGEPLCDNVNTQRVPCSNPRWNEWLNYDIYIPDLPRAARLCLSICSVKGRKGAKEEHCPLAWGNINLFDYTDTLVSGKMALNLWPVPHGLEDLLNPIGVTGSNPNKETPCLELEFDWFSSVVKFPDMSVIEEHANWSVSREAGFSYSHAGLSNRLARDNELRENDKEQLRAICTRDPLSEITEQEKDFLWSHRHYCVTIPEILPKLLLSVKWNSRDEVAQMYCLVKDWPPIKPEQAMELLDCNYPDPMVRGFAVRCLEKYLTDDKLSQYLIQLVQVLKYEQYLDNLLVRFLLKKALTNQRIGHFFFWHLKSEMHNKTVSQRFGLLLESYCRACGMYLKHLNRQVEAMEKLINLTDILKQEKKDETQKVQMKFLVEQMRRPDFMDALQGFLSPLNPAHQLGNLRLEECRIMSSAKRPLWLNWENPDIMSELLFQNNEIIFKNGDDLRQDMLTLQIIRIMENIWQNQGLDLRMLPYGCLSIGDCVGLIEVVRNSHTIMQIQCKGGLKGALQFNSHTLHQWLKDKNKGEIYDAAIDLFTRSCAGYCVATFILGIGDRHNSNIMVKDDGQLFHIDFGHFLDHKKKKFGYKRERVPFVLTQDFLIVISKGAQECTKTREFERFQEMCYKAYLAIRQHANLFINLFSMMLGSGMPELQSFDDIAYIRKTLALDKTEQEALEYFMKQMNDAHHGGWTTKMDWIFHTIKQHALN
Sequence of PIK3CB (P42338 whole entry, looked up): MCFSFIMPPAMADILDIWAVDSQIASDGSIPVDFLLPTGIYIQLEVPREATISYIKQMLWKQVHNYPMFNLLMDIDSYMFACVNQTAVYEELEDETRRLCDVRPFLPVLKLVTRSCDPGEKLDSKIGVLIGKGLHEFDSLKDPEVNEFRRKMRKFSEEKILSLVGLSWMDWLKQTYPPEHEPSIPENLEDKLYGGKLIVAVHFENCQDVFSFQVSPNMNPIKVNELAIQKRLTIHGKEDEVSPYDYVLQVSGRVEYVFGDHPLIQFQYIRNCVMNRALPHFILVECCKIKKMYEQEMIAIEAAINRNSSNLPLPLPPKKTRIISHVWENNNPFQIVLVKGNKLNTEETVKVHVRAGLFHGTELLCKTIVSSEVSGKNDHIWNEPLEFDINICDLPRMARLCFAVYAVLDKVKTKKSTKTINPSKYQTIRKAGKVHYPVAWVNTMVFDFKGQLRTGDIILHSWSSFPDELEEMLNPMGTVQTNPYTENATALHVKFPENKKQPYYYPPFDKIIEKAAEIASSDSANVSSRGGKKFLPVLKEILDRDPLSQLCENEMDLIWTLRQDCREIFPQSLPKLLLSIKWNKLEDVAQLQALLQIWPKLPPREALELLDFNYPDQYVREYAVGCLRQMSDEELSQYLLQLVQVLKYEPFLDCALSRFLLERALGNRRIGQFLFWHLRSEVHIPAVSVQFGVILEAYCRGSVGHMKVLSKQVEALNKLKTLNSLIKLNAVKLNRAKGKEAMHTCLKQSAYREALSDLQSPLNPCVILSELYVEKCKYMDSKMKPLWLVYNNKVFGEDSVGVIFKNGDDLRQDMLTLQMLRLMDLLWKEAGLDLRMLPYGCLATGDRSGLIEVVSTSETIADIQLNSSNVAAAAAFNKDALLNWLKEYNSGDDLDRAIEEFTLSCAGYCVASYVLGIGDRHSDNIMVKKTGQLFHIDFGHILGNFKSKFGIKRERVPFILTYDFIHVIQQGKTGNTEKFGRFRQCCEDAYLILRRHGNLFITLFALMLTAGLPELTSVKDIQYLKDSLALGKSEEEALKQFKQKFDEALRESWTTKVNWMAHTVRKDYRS
Sequence of PIK3CG (P48736 whole entry, looked up): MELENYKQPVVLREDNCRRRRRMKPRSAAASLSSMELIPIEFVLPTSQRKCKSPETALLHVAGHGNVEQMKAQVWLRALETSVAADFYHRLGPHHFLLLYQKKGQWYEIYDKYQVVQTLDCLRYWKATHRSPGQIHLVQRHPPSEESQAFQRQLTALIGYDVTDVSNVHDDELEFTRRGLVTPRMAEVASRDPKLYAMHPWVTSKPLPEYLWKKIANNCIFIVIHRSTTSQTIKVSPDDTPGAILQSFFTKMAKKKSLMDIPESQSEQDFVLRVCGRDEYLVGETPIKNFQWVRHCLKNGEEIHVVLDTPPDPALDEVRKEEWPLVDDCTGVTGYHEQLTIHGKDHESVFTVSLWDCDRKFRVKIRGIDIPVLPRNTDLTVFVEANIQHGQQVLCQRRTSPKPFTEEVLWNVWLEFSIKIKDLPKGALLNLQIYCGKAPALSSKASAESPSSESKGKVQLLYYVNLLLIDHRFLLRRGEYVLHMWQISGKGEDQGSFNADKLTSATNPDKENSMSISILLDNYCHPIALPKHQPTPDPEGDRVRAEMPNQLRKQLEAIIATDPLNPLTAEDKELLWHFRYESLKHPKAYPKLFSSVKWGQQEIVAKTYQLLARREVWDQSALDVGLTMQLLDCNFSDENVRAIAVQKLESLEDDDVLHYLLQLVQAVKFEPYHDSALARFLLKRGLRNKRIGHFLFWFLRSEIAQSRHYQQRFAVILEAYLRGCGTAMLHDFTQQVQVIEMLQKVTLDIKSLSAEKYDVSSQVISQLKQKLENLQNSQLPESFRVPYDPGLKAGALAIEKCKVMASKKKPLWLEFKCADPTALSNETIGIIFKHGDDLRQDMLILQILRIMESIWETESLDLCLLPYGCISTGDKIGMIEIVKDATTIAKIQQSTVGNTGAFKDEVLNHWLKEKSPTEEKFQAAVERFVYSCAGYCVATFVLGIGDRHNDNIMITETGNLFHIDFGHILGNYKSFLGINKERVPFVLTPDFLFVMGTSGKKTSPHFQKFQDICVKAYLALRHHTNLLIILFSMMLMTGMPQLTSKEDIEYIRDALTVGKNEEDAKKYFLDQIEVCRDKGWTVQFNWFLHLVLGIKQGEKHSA

Consider `Oc1ccc2nc(-c3ccccc3)nc(N3CCOCC3)c2c1`, for which the IC50 (commonly the concentration at which inhibition is half-maximal) at PIK3CA (bovine) turned out to be 1300 nM.

At PIK3CA (bovine), `Oc1ccc2nc(-c3cccc(F)c3)nc(N3CCOCC3)c2c1` registered an IC50 of 1800 nM.

In the case of `Oc1ccc2c(N3CCOCC3)nc(-c3ccccc3)nc2c1`, at PIK3CA (bovine), the IC50 worked out at 9800 nM.

Turning to `Oc1cccc2nc(-c3ccccc3)nc(N3CCOCC3)c12`, the IC50 at PIK3CA (bovine) was above 30000 nM.

Consider `Nc1ccccc1-c1nc(N2CCOCC2)c2cc(O)ccc2n1`, for which the IC50 at PIK3CA (bovine) turned out to be 3900 nM.

In turn, `Nc1ccc(-c2nc(N3CCOCC3)c3cc(O)ccc3n2)cc1` had an IC50 on PIK3CA (bovine) of 930 nM.

`Oc1cccc(-c2nc(N3CCOCC3)c3cc(O)ccc3n2)c1` returned an IC50 against PIK3CA (bovine) of 75 nM.

The molecule `OCc1ccc(-c2nc(N3CCOCC3)c3cc(O)ccc3n2)cc1` displayed an IC50 on PIK3CA (bovine) of 3700 nM.

For `Oc1cccc(-c2nc(N3CCOCC3)c3cnccc3n2)c1`, the IC50 at PIK3CA (bovine) came to 13 nM.

For `Oc1ccc2nc(-c3ccccc3)nc(N3CCCCC3)c2c1`, at PIK3CA (bovine), the IC50 is above 60000 nM.

Turning to `COCCNc1nc(-c2ccccc2)nc2ccc(O)cc12`, the IC50 at PIK3CA (bovine) turned out to be 15000 nM.

The molecule `OCc1cccc(-c2nc(N3CCOCC3)c3cc(O)ccc3n2)c1` yielded an IC50 against PIK3CA (bovine) of 100 nM.

As for `Oc1cccc(-c2nc(N3CCOCC3)c3ccncc3n2)c1`, the IC50 at PIK3CA (bovine) came to 19 nM.

`c1ccc(-c2nc(N3CCOCC3)c3ccccc3n2)cc1`: at PIK3CA (bovine), the 50% inhibitory concentration (IC50) was found to be 14000 nM.

`Oc1cccc(-c2nc(N3CCOCC3)c3ccccc3n2)c1` showed a half-maximal inhibitory concentration (IC50) against PIK3CA (bovine) of 56 nM.

On PIK3CA (bovine), `Oc1cccc(-c2nc(N3CCOCC3)c3ncccc3n2)c1` returned a half-inhibitory concentration (IC50) of 27 nM.

At PIK3CA (bovine), `Oc1ccc(-c2nc(N3CCOCC3)c3cc(O)ccc3n2)cc1` registered an IC50 of 2800 nM.

In turn, `O=C1CCN(c2nc(-c3ccccc3)nc3ccc(O)cc23)CC1` gave an IC50 on PIK3CA (bovine) of 21000 nM.

In the case of `Oc1cccc(-c2nc(N3CCOCC3)c3sccc3n2)c1`, the IC50 was found to be 28 µM on CDK2, 16 nM at PIK3CB, 2 nM against PIK3CA (bovine) and 660 nM against PIK3CG.

`COc1ccc2nc(-c3ccccc3)nc(N3CCOCC3)c2c1` gave an IC50 at PIK3CA (bovine) of 2100 nM.

On to `Nc1cccc(-c2nc(N3CCOCC3)c3cc(O)ccc3n2)c1`, for which the IC50 at PIK3CA (bovine) was determined as 440 nM.

`COc1cccc(-c2nc(N3CCOCC3)c3cc(O)ccc3n2)c1`: the IC50 against PIK3CA (bovine) came to 600 nM.

On to `Oc1ccc2nc(-c3ccccc3)nc(N3CCC(O)CC3)c2c1`, for which the half-inhibitory concentration (IC50) on PIK3CA (bovine) is 12000 nM.

Consider `Oc1ccc2nc(-c3ccccc3O)nc(N3CCOCC3)c2c1`, for which the IC50 on PIK3CA (bovine) came to 2900 nM.
